Read-outs that look alike come from different tables or passages of the source. Where only a bound is given, the exact number is not on record here.

Test [1] addresses T1, MAP4K2 (GCK) (Homo sapiens, UniProt Q12851).
T1 sequence (Q12851 1-820): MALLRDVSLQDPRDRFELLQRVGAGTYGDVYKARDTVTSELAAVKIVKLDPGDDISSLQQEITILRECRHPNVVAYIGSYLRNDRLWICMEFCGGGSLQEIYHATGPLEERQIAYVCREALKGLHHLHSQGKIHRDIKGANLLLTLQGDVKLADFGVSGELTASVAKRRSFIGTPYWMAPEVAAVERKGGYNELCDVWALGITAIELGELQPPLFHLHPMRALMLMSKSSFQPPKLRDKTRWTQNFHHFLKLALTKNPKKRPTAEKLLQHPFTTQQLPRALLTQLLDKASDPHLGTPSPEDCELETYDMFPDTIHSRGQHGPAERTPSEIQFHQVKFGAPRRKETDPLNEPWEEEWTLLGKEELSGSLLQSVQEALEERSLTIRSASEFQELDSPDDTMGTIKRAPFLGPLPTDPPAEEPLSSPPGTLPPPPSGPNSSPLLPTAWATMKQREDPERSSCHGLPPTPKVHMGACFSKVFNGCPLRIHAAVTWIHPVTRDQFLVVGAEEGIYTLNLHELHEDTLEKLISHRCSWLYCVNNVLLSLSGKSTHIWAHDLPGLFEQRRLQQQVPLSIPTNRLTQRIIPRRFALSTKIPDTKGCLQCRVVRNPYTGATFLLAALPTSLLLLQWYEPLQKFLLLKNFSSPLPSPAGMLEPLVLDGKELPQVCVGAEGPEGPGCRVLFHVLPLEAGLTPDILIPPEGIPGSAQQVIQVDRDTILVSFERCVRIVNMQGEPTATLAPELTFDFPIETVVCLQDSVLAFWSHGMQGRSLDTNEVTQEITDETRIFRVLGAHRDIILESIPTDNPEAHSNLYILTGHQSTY
Put plainly: Z'-LYTE SelectScreen biochemical kinase assay MAP4K2 (GCK). The text has this:
(§1) Thermo Fisher Scientific SelectScreen™ Biochemical Kinase Profiling Service Z′-LYTE™ Screening Protocol and Assay Conditions Assay Theory
(§2) The […] biochemical assay employs a fluorescence-based, coupled-enzyme format and is based on the differential sensitivity of phosphorylated and non-phosphorylated peptides to proteolytic cleavage. The peptide substrate is labeled with two fluorophores—one at each end—that make up a FRET pair. In the primary reaction, the kinase transfers the gamma-phosphate of ATP to a single tyrosine, serine or threonine residue in a synthetic FRET-peptide. In the secondary reaction, a site-specific protease recognizes and cleaves non-phosphorylated FRET-peptides. Phosphorylation of FRET-peptides suppresses cleavage by the Development Reagent. Cleavage disrupts FRET between the donor (i.e., coumarin) and acceptor (i.e., fluorescein) fluorophores on the FRET-peptide, whereas uncleaved, phosphorylated FRET-peptides maintain FRET. A ratiometric method, which calculates the ratio (Emission Ratio=Coumarin emission (445 nm)/Fluorescein emission (520 nm)) of donor emission to acceptor emission after excitation of the donor fluorophore at 400 nm, is used to quantitate reaction progress, as shown in the equation below. A significant benefit of this ratiometric method for quantitating reaction progress is the elimination of well-to-well variations in FRET-peptide concentration and signal intensities. As a result, the assay yields very high Z′-factor values (>0.7) at a low percent phosphorylation. Both cleaved and uncleaved FRET-peptides contribute to the fluorescence signals and therefore to the Emission Ratio. The extent of phosphorylation of the FRET-peptide can be calculated from the Emission Ratio. The Emission Ratio will remain low if the FRET-peptide is phosphorylated (i.e., no kinase inhibition) and will be high if the FRET-peptide is non-phosphorylated (i.e., kinase inhibition).
(§3) The Test Compounds are screened in 1% DMSO (final) in the well. For 10 point titrations, 3-fold serial dilutions are conducted from the starting concentration of the customer's choosing.
(§4) All Peptide/Kinase Mixtures are diluted to a 2× working concentration in the appropriate Kinase Buffer (see section Kinase Specific Assay Conditions for a complete description).
(§5) All ATP Solutions are diluted to a 4× working concentration in Kinase Buffer (50 mM HEPES pH 7.5, 0.01% BRIJ-35, 10 mM MgCl2, 1 mM EGTA). ATP Km apparent is previously determined using a Z″-LYTE assay.
(§6) The Development Reagent is diluted in Development Buffer (see section Kinase-Specific Assay Conditions—Direct and Cascade for a complete description).
(§7) Bar-coded Corning, low volume NBS, black 384-well plate (Corning Cat. #4514) • 1. 100 nL—100× Test Compound in 100% DMSO • 2. 2.4 μL—Kinase buffer • 3. 5 μL—2× Peptide/Kinase Mixture • 4. 2.5 μL—4×ATP Solution • 5. 30—second plate shake • 6. 60—minute Kinase Reaction incubation at room temperature • 7. 5 μL—Development Reagent Solution • 8. 30—second plate shake • 9. 60—minute Development Reaction incubation at room temperature • 10. Read on fluorescence plate reader and analyze the data Z′-LYTE Assay Controls
(§8) SelectScreen Kinase Profiling Service uses XLfit from IDBS. The dose response curve is curve fit to model number 205 (sigmoidal dose-response model).
The 2×MAP4K2 (GCK)/Ser/Thr 07 mixture is prepared in 50 mM HEPES pH 7.5, 0.01% BRIJ-35, 10 mM MgCl2, 1 mM EGTA. The final 10 μL Kinase Reaction consists of 0.11-3 ng MAP4K2 (GCK) and 2 μM Ser/Thr 07 in 50 mM HEPES pH 7.5, 0.01% BRIJ-35, 10 mM MgCl2, 1 mM EGTA. After the 1 hour Kinase Reaction incubation, 5 μL of a 1:45000 dilution of Development Reagent A is added.

In test [2] the target is MAP4K4 (HGK) (Homo sapiens, UniProt O95819). Put plainly: Z'-LYTE SelectScreen biochemical kinase assay MAP4K4 (HGK).
Text: as §1, §2, §3, §4, §5, §6, §7, §8
The 2×MAP4K4 (HGK)/Ser/Thr 07 mixture is prepared in 50 mM HEPES pH 7.5, 0.01% BRIJ-35, 10 mM MgCl2, 1 mM EGTA. The final 10 μL Kinase Reaction consists of 0.36-1.82 ng MAP4K4 (HGK) and 2 μM Ser/Thr 07 in 50 mM HEPES pH 7.5, 0.01% BRIJ-35, 10 mM MgCl2, 1 mM EGTA. After the 1 hour Kinase Reaction incubation, 5 μL of a 1:45000 dilution of Development Reagent A is added.

Where [3] appears, read: 10 μmolar compound concentration, ATP at Km app, read-out: MAP4K2 (GCK) inhibition.
Setting [4] is: read-out: % Inhibition mean MAP4K2 (GCK).
Where [5] appears, read: 10 μmolar compound concentration, ATP at Km app, read-out: MAP4K4 (HGK) inhibition.
[6] abbreviates: read-out: % Inhibition mean MAP4K4 (HGK).

Chain of MAP4K4 (HGK) (O95819 whole entry): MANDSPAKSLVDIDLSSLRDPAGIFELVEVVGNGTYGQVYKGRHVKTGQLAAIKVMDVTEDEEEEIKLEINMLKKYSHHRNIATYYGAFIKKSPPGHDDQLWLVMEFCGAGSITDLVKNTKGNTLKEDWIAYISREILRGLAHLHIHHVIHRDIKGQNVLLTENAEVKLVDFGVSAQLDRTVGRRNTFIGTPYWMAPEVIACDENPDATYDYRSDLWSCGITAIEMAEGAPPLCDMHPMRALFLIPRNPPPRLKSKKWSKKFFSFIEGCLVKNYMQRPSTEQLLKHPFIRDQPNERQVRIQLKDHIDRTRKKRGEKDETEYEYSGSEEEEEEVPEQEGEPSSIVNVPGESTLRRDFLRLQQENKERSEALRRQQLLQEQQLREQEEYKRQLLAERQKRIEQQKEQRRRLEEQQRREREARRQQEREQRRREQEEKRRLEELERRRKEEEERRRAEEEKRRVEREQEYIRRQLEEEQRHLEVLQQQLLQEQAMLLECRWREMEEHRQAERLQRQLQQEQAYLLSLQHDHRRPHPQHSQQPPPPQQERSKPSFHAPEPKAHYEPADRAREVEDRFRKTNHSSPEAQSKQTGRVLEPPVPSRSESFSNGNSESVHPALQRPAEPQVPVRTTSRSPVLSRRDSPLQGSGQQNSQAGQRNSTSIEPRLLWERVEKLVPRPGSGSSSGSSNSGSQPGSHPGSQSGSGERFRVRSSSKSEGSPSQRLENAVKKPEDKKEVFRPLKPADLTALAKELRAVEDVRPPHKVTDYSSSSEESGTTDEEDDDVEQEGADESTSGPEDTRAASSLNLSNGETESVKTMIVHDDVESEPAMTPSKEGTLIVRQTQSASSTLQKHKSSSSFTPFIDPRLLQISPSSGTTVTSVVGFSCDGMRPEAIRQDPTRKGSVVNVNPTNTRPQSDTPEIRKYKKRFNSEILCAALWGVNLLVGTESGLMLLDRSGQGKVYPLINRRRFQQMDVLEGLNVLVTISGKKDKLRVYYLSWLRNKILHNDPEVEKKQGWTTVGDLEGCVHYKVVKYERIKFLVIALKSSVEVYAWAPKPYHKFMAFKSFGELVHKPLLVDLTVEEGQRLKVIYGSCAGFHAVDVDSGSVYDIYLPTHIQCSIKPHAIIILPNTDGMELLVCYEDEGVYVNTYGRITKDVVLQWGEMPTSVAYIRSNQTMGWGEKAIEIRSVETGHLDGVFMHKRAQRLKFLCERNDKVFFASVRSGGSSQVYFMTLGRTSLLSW

For `CCn1ncc2c1CCC(Nc1nc3c(-c4ccc(C)nc4)cccn3n1)C2` (stereo not shown) [Example 67, (1-Ethyl-4,5,6,7-tetrahydro-1H-indazol-5-yl)-[8-(6-methyl-pyridin-3-yl)-[1,2,4]triazolo[1,5-a]pyridine-2-yl]-amine], the inhibition at 10 µM was < 40% in test [1] (setting [3]), 14% in test [1] (setting [4]), 40 to 80% in test [2] (setting [5]) and 49% in test [2] (setting [6]).
On the same counts, the results for `Cc1cc(F)ccc1-c1cccn2nc(NC3CCc4cnn(C)c4C3)nc12` (stereo not shown) [Example 40, [8-(4-Fluoro-2-methyl-phenyl)-[1,2,4]triazolo[1,5-a]pyridine-2-yl]-(1-methyl-4,5,6,7-tetrahydro-1H-indazol-6-yl)-amine] are < 40%, 13%, 40 to 80% and 45%.
With `CCn1ncc2c1CCC(Nc1nc3c(-c4ccc(OC)nc4)cccn3n1)C2` (stereo not shown) [Example 71, (1-Ethyl-4,5,6,7-tetrahydro-1H-indazol-5-yl)-[8-(6-methoxy-pyridin-3-yl)-[1,2,4]triazolo[1,5-a]pyridine-2-yl]-amine], the inhibition at 10 µM in test [1] (setting [3]) was < 40%; in test [1] (setting [4]), 26%; in test [2] (setting [5]), < 40%; in test [2] (setting [6]), 16%.
In the case of `CCn1nnc2c1CCC(Nc1nc3c(-c4ccc(F)cc4C)cccn3n1)C2` (stereo not shown) [Example 51, (1-Ethyl-4,5,6,7-tetrahydro-1H-benzotriazol-5-yl)-[8-(4-fluoro-2-methyl-phenyl)-[1,2,4]triazolo[1,5-a]pyridine-2-yl]-amine], the inhibition at 10 µM in test [1] (setting [3]) was < 40%; in test [1] (setting [4]) it was 22%; in test [2] (setting [5]), < 40%; in test [2] (setting [6]), -8%.

The inhibition is the drop in the measured response relative to a control, in per cent.

These data come from patent publication US11339161B2, “Triazolo pyridines as modulators of gamma-secretase” (Boehringer Ingelheim International GmbH, priority 2017, dated 2022).
